# Experimental data: paper PMC7717579, “Phosphoregulation of HORMA domain protein HIM-3 promotes asymmetric synaptonemal complex disassembly in meiotic prophase in Caenorhabditis elegans” (PLoS Genetics, 2020)
# Non-standard residues stand in square brackets, D forms with d. Residues, ends and D or L forms follow the SMILES beside them. *: point of attachment. FITC = O=C1OC2(c3ccc(O)cc3Oc3cc(O)ccc32)c2ccc(NC(=S)*)cc21; pY = N[C@@H](Cc1ccc(OP(=O)(O)O)cc1)C(=O)O; pS = N[C@@H](COP(=O)(O)O)C(=O)O; Ahx = NCCCCCC(=O)O
# Target: T1, HTP-2 protein (full length) (Caenorhabditis elegans, UniProt Q95XC8)
# T1 sequence (Q95XC8 1-352): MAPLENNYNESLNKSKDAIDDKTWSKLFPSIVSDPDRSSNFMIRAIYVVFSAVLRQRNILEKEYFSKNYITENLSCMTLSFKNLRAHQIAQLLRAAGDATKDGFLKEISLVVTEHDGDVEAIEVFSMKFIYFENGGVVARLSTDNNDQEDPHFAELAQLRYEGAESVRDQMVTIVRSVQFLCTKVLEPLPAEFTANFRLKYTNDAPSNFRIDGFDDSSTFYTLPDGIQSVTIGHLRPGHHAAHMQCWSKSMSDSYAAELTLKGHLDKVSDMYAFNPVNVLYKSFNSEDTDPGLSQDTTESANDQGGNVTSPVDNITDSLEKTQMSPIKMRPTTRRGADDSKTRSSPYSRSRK
# Experiment: Fluorescence polarization (FP) peptide binding assay
# Details: for Kd (HTP-2 binding): FP, 50 nM FITC-tagged HIM-3 closure motif peptide, various concentrations of bacterially purified full-length HTP-2, 20 mM Tris pH 7.5, 300 mM NaCl, 10% glycerol, 1 mM DTT, 0.1% NP-40, 1 hour at room temperature, single-site binding model, triplicated measurements
# Source text: To understand regulation of meiotic proteins by post-translational modification, we previously carried out mass spectrometry to identify phosphorylated proteins in C. elegans adult hermaphrodites. […] We detected phosphopeptides containing Ser282 either singly or in combination with Ser274, Ser277, or Tyr279, and the most commonly-observed peptide contained doubly-phosphorylated Ser277/Ser282 (Fig 1A and S1 Table). Among the three most C-terminal phosphoresidues, which reside within the conserved closure motif, Tyr279 and Ser or Thr at position 282 are conserved features among nematode HIM-3 orthologs (Fig 1A). […] More recent studies further identified this C-terminus region containing Ser375 to be the closure motif, able to be bound by the HORMA domain of HORMAD1 itself and HORMAD2 [27, 34]. While phosphorylation at the closure motif is conserved between C. elegans HIM-3 and mouse HORMAD1 (S1 Fig), the function is not understood. Since other HORMA family proteins, HTP-1 and -2, are known to bind the HIM-3 closure motif in C. elegans, we first examined if phosphorylation affects HTP-1/2 binding to HIM-3 in vitro. A previous study has shown that both HTP-1 and -2 proteins bind unmodified HIM-3 peptides containing the closure motif in a fluorescence polarization (FP) peptide binding assay. Examination of the crystal structure resolved by the same study led us to predict that phosphorylation at Ser282 would likely interfere with HTP-1/2 binding (Fig 1B). We conducted a similar FP peptide binding assay using purified HTP-2 and fluorescently tagged HIM-3 closure motif peptides containing various modifications (Fig 1C).
# Fig 1 Phosphorylation at the HIM-3 closure motif prevents HTP-1/2 binding in vitro. A, top: Schematic diagram of HIM-3, showing the HORMA domain (magenta) and phosphorylation sites identified by mass spectrometry in red. The conserved closure motif is underlined. bottom: Conservation of the Tyr and Ser/Thr, highlighted in orange, in the closure motif in eight Caenorhabditis species. B, left: Diagram of hierarchical binding of HTP-1, 2, 3 and HIM-3 from. center, diagram of possible multivalent binding modes of the axial element, based on. right, Interactions between the HIM-3 closure motif (magenta) and the HTP-2 (grey) HORMA domain shown in PDB structure 4TZL [27]. C, Fluorescence polarization peptide binding assay using bacterially purified HTP-2 protein (full length) and fluorescently tagged HIM-3 peptides with indicated phosphorylation or Ala substitution. Wild type means HIM-3 peptides with no phosphorylation. Phosphorylation at Ser282 inhibits HTP-2 binding in vitro. Error bars are calculated as the SD from triplicated measurements. […]
# Fluorescein (FITC) conjugated peptides for the FP assay were synthesized by either Scrum Inc. or Eurofins Inc. as shown in S2 Table. […] For the fluorescence assay, synthesized peptides were first resuspended in DMSO, then diluted into binding buffer (20 mM Tris pH 7.5, 300 mM NaCl, 10% glycerol, 1 mM DTT, 0.1% NP-40). Reactions of 50 μl total volume containing 50 nM peptide and various concentrations of HTP-2 proteins were incubated for 1 hour at room temperature, then fluorescence polarization was measured in 384-well plates using a TECAN Infinite M1000 PRO fluorescence plate reader. Binding data were analyzed with Graphpad Prism version 6.0h for Macintosh (GraphPad Software, La Jolla California USA) using a single-site binding model.
Molecule,Kd,Kd (HTP-2 binding)
CC[C@H](C)[C@H](NC(=O)CNC(=O)[C@H](CCC(N)=O)NC(=O)[C@H](C)NC(=O)[C@H](CC(C)C)NC(=O)CNC(=O)[C@H](Cc1ccc(O)cc1)NC(=O)[C@@H]1CCCN1C(=O)[C@H](CO)NC(=O)[C@H](CC(=O)O)NC(=O)[C@H](CCCNC(=N)N)NC(=O)[C@H](CO)NC(=O)[C@@H](NC(=O)[C@H](CCCNC(=N)N)NC(=O)CCCCCNC(=S)Nc1ccc2c(c1)C(=O)OC21c2ccc(O)cc2Oc2cc(O)ccc21)[C@@H](C)CC)C(=O)N[C@H](C(=O)N[C@@H](CCCCN)C(=O)O)[C@@H](C)O [S282A] ({FITC-Ahx}-RISRDSPYGLAQGITK-OH),11.3 µM,
CC[C@H](C)[C@H](NC(=O)CNC(=O)[C@H](CCC(N)=O)NC(=O)[C@H](CO)NC(=O)[C@H](CC(C)C)NC(=O)CNC(=O)[C@H](Cc1ccc(OP(=O)(O)O)cc1)NC(=O)[C@@H]1CCCN1C(=O)[C@H](CO)NC(=O)[C@H](CC(=O)O)NC(=O)[C@H](CCCNC(=N)N)NC(=O)[C@H](CO)NC(=O)[C@@H](NC(=O)[C@H](CCCNC(=N)N)NC(=O)CCCCCNC(=S)Nc1ccc2c(c1)C(=O)OC21c2ccc(O)cc2Oc2cc(O)ccc21)[C@@H](C)CC)C(=O)N[C@H](C(=O)N[C@@H](CCCCN)C(=O)O)[C@@H](C)O [Y279phos] ({FITC-Ahx}-RISRDSP[pY]GLSQGITK-OH),16.1 µM,
CC[C@H](C)[C@H](NC(=O)CNC(=O)[C@H](CCC(N)=O)NC(=O)[C@H](CO)NC(=O)[C@H](CC(C)C)NC(=O)CNC(=O)[C@H](Cc1ccc(O)cc1)NC(=O)[C@@H]1CCCN1C(=O)[C@H](CO)NC(=O)[C@H](CC(=O)O)NC(=O)[C@H](CCCNC(=N)N)NC(=O)[C@H](CO)NC(=O)[C@@H](NC(=O)[C@H](CCCNC(=N)N)NC(=O)CCCCCNC(=S)Nc1ccc2c(c1)C(=O)OC21c2ccc(O)cc2Oc2cc(O)ccc21)[C@@H](C)CC)C(=O)N[C@H](C(=O)N[C@@H](CCCCN)C(=O)O)[C@@H](C)O [unphosphorylated peptides] ({FITC-Ahx}-RISRDSPYGLSQGITK-OH),5.8 µM,
"{FITC}-[Ahx]RISRDSPYGL[pS]QGITK-OH [S282phos, FITC-tagged HIM-3 closure motif peptide phosphorylated at Ser282]",,not significant binding
"{FITC}-[Ahx]RISRDSP[pY]GL[pS]QGITK-OH [Y279phos_S282phos, FITC-tagged HIM-3 closure motif peptide phosphorylated at Tyr279 and Ser282]",,not significant binding
